Literature values in patent publication US20080253970A1, “Stable Pharmaceutical Drug Products” (Schering Corporation, priority 2007, published 2008).

For `CC1(C)O[C@@H]2C[C@H]3[C@@H]4C[C@H](F)C5=CC(=O)C=C[C@]5(C)[C@H]4[C@@H](O)C[C@]3(C)[C@]2(C(=O)CO)O1` [flunisolide], the solubility in ethanol is listed as “partially soluble in ethanol”.

In the case of `C[C@@H]1C[C@H]2[C@@H]3CCC4=CC(=O)C=C[C@]4(C)[C@@]3(Cl)[C@@H](O)C[C@]2(C)[C@@]1(OC(=O)c1ccco1)C(=O)CCl` [mometasone furoate, 9,21-Dichloro-11(beta), 17-dihydroxy-16(alpha)-methylpregna-1,4-diene-3,20-dione17-(2 Furoate)], the solubility in ethanol is listed as “partially soluble in ethanol”.

For `C[N+]1(C)[C@@H]2C[C@@H](OC(=O)C(O)(c3cccs3)c3cccs3)C[C@H]1[C@@H]1O[C@@H]12` [tiotropium], the solubility in ethanol is given as “partially soluble in ethanol”.
